In PMC8652888, “Angiogenesis, Anti-Tumor, and Anti-Metastatic Activity of Novel α-Substituted Hetero-Aromatic Chalcone Hybrids as Inhibitors of Microtubule Polymerization” (Frontiers in Chemistry, 2021):
Where “and” joins values, the source holds several entries; their conditions need not be identical. Identical values can stand only once. Like-named read-outs stand apart in the source and are kept apart here.

What was measured:
U937 = experiment: Antiproliferative activity, CCK-8 assay; type: cell-based
Outline: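 U937 cells in log phase seeded at 8,000/well with compound-containing medium and incubated 72 h at 37 °C, 5% CO2. Proliferation read by CCK-8 dye after a further 3–4 h incubation, against blank-medium wells.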

MCF-7 cells [1] = experiment: Apoptosis analysis, Annexin-V FITC/PI flow cytometry; type: cell-based, human; settings: for Late-apoptosis (Q2 of Annexin/PI plot), single runs / Pro-apoptosis (Q3 of Annexin/PI plot), single runs / percentage of apoptotic cells (early and late apoptosis): 48 h
Protocol: To test whether compound 7m induced reduction in cell viability was responsible for the induction of apoptosis, MCF-7 cells were stained with Annexin-V FITC/PI staining, and the number of apoptotic cells was estimated by flow cytometry.
The MCF-7 cells in 12-well plates (8 × 10^4 cells/well) were cultured for 24 h at 37°C in 5% CO2 and then incubated with 7m at concentrations of 100, 200, 400 nM, or vehicle to induce cell apoptosis for 48 h. Then the cells floating in the supernatant were combined with the adherent fraction and washed with PBS three times. The cells were incubated with Annexin V-FITC and PI for 15 min at 37°C in the dark. Apoptosis was quantified using a flow cytometer (Becton, Dickinson and Company, USA).

[2] = test system: Cyclin B1, p-Cdc2 and P21 in MCF-7 cells; experiment: Western blot of cell cycle-related proteins; type: cell-based, human; settings: for P21, band quantification / cyclinB1, band quantification / pcdc2, band quantification: two runs
Protocol: Cell cycle regulatory proteins Cyclin B1 and Cdc2 are key proteins to control the transition from G2 to M phase through increasing the G2/M intracellular fraction in cell cycle distribution. Some agents produce cell cycle arrest by decreasing Cyclin B1 level ([Xiao et al., 2018]), while others increase the Cyclin B1 level, depending on the cell types ([Zhang et al., 2016]).
MCF-7 cells were seeded into […] dishes at a density of 6 × 10^5/dish and incubated for 24 h. After treating the cells with the compound 7m, the cells were cultured for 48 h and washed with PBS, and then the soluble and insoluble tubulin fractions were collected. Protein quantification was performed by BCA Protein Concentration Determination Kit following centrifugation at 12,000 rpm for 10 min at 4°C. Cell lysates were separated by SDS-PAGE at 80 V constant voltage for 30–40 min. […] After 5% skim milk was blocked for 1 h, the primary antibody was added and incubated overnight before being washed three times with PBST. The secondary antibody was incubated for 2 h at room temperature the next day and subsequently washed three times with PBST. Then the signal was detected with ECL.

MCF-7 cells [3] = experiment: Transwell Matrigel invasion assay; type: cell-based, human
Protocol: In order to evaluate whether 7m could suppress migration and invasion, the MCF-7 cell culture was performed by wound healing and Transwell Matrigel assay, respectively.
The upper chamber of the Transwell chamber was filled with cells resuspended in serum-free medium, 6 × 10^4 cells per well, 100 μl per well, and the lower chamber was added with 10% FBS-containing medium prepared with different concentrations of 7m. The cells were allowed to migrate for 48 h at 37°C in an atmosphere of 5% CO2. Then the migration of cells to the underside of the filter was determined by crystal violet staining.

[4] = test system: MCF-7 cells implanted in zebrafish embryos; experiment: Zebrafish xenograft assay; type: in vivo; settings: 2.5, 5, 7.5 μΜ, 72 h
Protocol: To examine the in vivo anti-tumor and anti-metastasis potency of 7m, we implanted Cell-Tracker Red CMTPX-labeled MCF-7 cells into the yolk of Tg (flk: EGFP) 48 hpf embryos, and different concentrations of 7m (2.5, 5, 7.5 μΜ) were added. The intensity of the red fluorescence is proportional to the size of the xenograft tumor. After 72 h, the effects of 7m on the tumor mass development and cancer cell metastasis were assessed by fluorescence microscopy. […] Without drug treatment, MCF-7 cells disseminated and migrated widely away from the original area, and some tumor cells even migrated into the blood vessels of the zebrafish tail at 72 hpf.
The tumor cells MCF-7 were labeled with Red CMTPX, and then the labeled tumor cells were digested and resuspended. A hundred labeled tumor cells per 1 nl were injected into the zebrafish embryos developed for 48 h. The zebrafish injected with tumor cells were incubated in an incubator at 28.5°C for about 1 h under the action of different concentrations of 7m and then were transferred to an incubator at 35°C.

## 3-(benzofuran-6-yl)-2-methyl-1-(3,4,5-trimethoxyphenyl)prop-2-en-1-one [Compound 7m]
U937; 72 h, triplicate, mean ± SD, read-out: IC50 ± SD, U937
  IC50: 82 ± 2 nM
U937; supplement raw data of table 2, read-out: IC50(U937)
  IC50: 81.6 nM
MCF-7 cells [1]; 100nM
  Late-apoptosis AVERAGE: 37.3
  Pro-apoptosis AVERAGE: 6.425
  Late-apoptosis (Q2 of Annexin/PI plot), single runs: 36 and 38.6
  Pro-apoptosis (Q3 of Annexin/PI plot), single runs: 7.59 and 5.26
  percentage of apoptotic cells (early and late apoptosis): 44%
MCF-7 cells [1]; 200nM
  Late-apoptosis AVERAGE: 48.8
  Pro-apoptosis AVERAGE: 3.01
  Late-apoptosis (Q2 of Annexin/PI plot), single runs: 49.3 and 48.3
  Pro-apoptosis (Q3 of Annexin/PI plot), single runs: 3.29 and 2.73
  percentage of apoptotic cells (early and late apoptosis): 53%
MCF-7 cells [1]; 400nM
  Late-apoptosis AVERAGE: 52.3
  Pro-apoptosis AVERAGE: 4.22
  Late-apoptosis (Q2 of Annexin/PI plot), single runs: 52.8 and 51.8
  Pro-apoptosis (Q3 of Annexin/PI plot), single runs: 4.66 and 3.78
  percentage of apoptotic cells (early and late apoptosis): 57%
[2]; 100nM
  P21, band quantification: 0.4949 and 0.5407
  cyclinB1, band quantification: 1.376 and 1.378
  pcdc2, band quantification: 0.4445 and 0.4619
[2]; 200nM
  P21, band quantification: 0.4098 and 0.48
  cyclinB1, band quantification: 1.5822 and 1.545
  pcdc2, band quantification: 0.4706 and 0.4291
[2]; 400nM
  P21, band quantification: 0.006743 and 0.008008
  cyclinB1, band quantification: 1.8972 and 1.928
  pcdc2, band quantification: 0.2956 and 0.3089
[2]; 100, 200, 400 nM
  Cyclin B1 expression: overexpressed
  p-Cdc2 protein level: dose-dependently decreased
MCF-7 cells [3]
  MCF-7 cells invasion: hinder the MCF-7 cells invasion in a dose-dependent manner
[4]
  fluorescence intensity and tumor size of MCF-7 cells vs vehicle: reduced the fluorescence intensity and tumor size
  migration number of implanted MCF-7 cells: notably reduced in a dose-dependent manner
